From US7745390B2, “Antimicrobial peptides” (priority 2005, dated 2010)
In brackets after ≈: the same amount, converted by molar mass. Square brackets hold non-standard residues; d marks the D form. Ends that are not written are not given here. Peptide text beside a SMILES is read from it.

Tests used:
Salmonella = type: cell-based, S. typhimurium; settings: pH 7.2
Procedure, shortened: (§1)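 Peptides were diluted in 10 mM phosphate buffer, pH 7.2 with 0.03% LB and incubated with bacteria (~5×10^6 CFU/ml) for 3 h at 37 °C in microtiter wells. LB was then added, growth continued overnight, and OD 600 nm was read. MIC is the lowest concentration with no growth; IC50 gives 50% growth versus medium.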

B. cereus [1] = type: cell-based; settings: pH 7.2
Procedure, shortened: as §1

E. coli DH5a = type: cell-based; settings: DH5a, pH 7.2
Procedure, shortened: as §1

bacteria [2] = test: Activity in DMEM and RPMI media (lysis of bacteria); type: cell-based; parameters: key to Active in DMEM: YES: Active in DMEM; a blank means no activity; settings: Table 2; tested in DMEM and RPMI
Protocol: (§2) The CFU assay is the “gold standard” for evaluating antibiotics. Briefly, bacteria are grown overnight in rich medium, such as LB, and then diluted and grown in log phase for 2-4 hours. Cultures are set up as above, with the initial culture media being 10 mM phosphate buffer/0.03% LB; DMEM or RPMI; or DMEM or RPMI plus 10% serum (fetal calf, human, or mouse). After various periods of time, but generally 3 hours or less, aliquots are removed, diluted in LB at various dilutions, and plated on LB agar plates. Plates are incubated overnight at 37° C. and counted on an automatic colony counter.
In the column “Active in DMEM”, a blank means no activity. MAP stands for multiple antigenic peptide, where a number of identical peptide chains are synthesized and joined to a common core (like a dendrimer).
The peptides listed in Table 2 were tested in DMEM and RPMI, media that approximate blood and tissue conditions in vivo and those that were active under these conditions are listed in the last column (active in DMEM). […] No peptides that were all L-isomer peptides lysed bacteria in DMEM supplemented with serum.
The hydrophobic moment is a measure of amphipathicity and indicates how well the hydrophobic residues fall on one side of the helix while the hydrophilic residues fall on the opposite side is shown in column 7. This was determined using the Membrane Explorer Program (http://blanco.biomol.uci.edu/mpex/). A high number indicates a high hydrophobic moment. Column 8 again (like Table 2) indicates which of these peptides is active in DMEM.

bacteria [3] = test: Activity in serum containing media (10% FCS in DMEM or RPMI); type: cell-based; settings: 10% FCS in DMEM or RPMI
Protocol: as §2
Tests were conducted in low salt concentrations so that active peptide candidates could be identified more readily. It is important for in vivo applications that the present antimicrobial peptides be active in physiological salt concentrations (150 mM) as well as in the presence of other tissue components, such as blood plasma (serum). Serum may contain proteases that destroy peptides; the use of D-amino acids can improve protease resistance. See G12.21. […] Also active were G11.6, G11.26, G11.29, G11.30, G11.34, G11.35, G12.11, G12.19, G12.20 and G12.21. […]

B. cereus [4] = test: CFU assay in 10% FCS/DMEM; type: cell-based; settings: 3 hrs
Protocol: as §2
(§3) Three preferred peptides G11.46, G12.21 and G14.15, discussed above, were further tested for antimicrobial efficacy under various conditions using the 10% FCS/DMEM assay as described under CFU assay. The incubation times with the bacteria and peptide was three hours, at which time the bacteria were diluted and plated on agar. […] The MIC for each compound is highlighted.

bacterial strains = test: organism not typed; type: cell-based
Protocol: as §3
Table 9 below repeats some data presented above in Tables 6, 7, and 8.

Molecule | IC50 (Salmonella) [nM] | Salmonella MIC (Salmonella) [µM] | B. cereus MIC (B. cereus [1]) [µM] | IC50 (B. cereus [1]) [nM] | E. coli DH5a MIC (E. coli DH5a) [µM] | IC50 (E. coli DH5a) [nM] | Active in DMEM (bacteria [2]) | active in serum containing media (bacteria [3]) | % Survival (CFU Assay) (B. cereus [4]; 0.08 uM) [%] | % Survival (CFU Assay) (B. cereus [4]; 0.16 uM) [%] | % Survival (CFU Assay) (B. cereus [4]; 0.32 uM) [%] | % Survival (CFU Assay) (B. cereus [4]; 0.63 uM) [%] | % Survival (CFU Assay) (B. cereus [4]; 1.25 uM) [%] | % Survival (CFU Assay) (B. cereus [4]; 2.5 uM) [%] | MIC (bacterial strains; 3 h) [µM] | MIC (bacterial strains; Bacillus cereus, ATCC53522, 3 h) [µM]
RRVSRPPPRRYRSRRPRRLV [Peptide G12.19] | 730 | 1.38 | 0.35 | 210 | 0.75 | 220 | YES | active | – | – | – | – | – | – | – | –
CSCC[C@H](NC(=O)[C@H](Cc1ccccc1)NC(=O)[C@@H](CCCNC(=N)N)NC(=O)[C@@H](CCCNC(=N)N)NC(=O)[C@H](CO)NC(=O)[C@@H](NC(=O)[C@H](CC(=O)O)NC(=O)[C@H](CCCNC(=N)N)NC(=O)[C@H](Cc1c[nH]c2ccccc12)NC(=O)[C@H](CCCNC(=N)N)NC(=O)[C@H](CO)NC(=O)[C@H](CCCNC(=N)N)NC(=O)CNC(=O)[C@@H](NC(=O)[C@H](CCCNC(=N)N)NC(=O)[C@H](CO)NC(=O)[C@@H](NC(=O)[C@H](CCCNC(=N)N)NC(=O)[C@@H](NC(=O)[C@@H](C)NC(=O)[C@@H](C)NC(=O)[C@H](CCCNC(=N)N)NC(=O)[C@H](CO)NC(=O)[C@@H](NC(=O)[C@H](CO)NC(=O)[C@H](CCCNC(=N)N)NC(=O)[C@@H](N)CCC(N)=O)C(C)C)[C@@H](C)O)C(C)C)[C@@H](C)O)C(C)C)C(=O)N[C@@H](CCCNC(=N)N)C(=O)N[C@@H](CCCNC(=N)N)C(=O)O [Peptide G8.8, QRSVSRaaTRVSRTGRSRWRDVSrrFMRR] (H-QRSVSR[dA][dA]TRVSRTGRSRWRDVS[dR][dR]FMRR-OH; N-terminus and C-terminus assumed) | 420 | 0.7 | 2.5 | 1700 | 0.35 | 210 | YES | active | – | – | – | – | – | – | – | –
RDVSRRFMRRGSRDVSRRFMRR [Peptide G11.6] | 890 | 1.4 | 2.4 | 890 | 0.7 | 450 | YES | active | – | – | – | – | – | – | – | –
RDVSRRFMRRGSRDVSRRFMRRGSRDVSRRFMRR [Peptide G11.26] | 210 | 0.35 | 0.35 | 210 | 0.7 | 400 | YES | active | – | – | – | – | – | – | – | –
CN[C@H](CC(C)C)C(=O)N[C@H]1C(=O)N[C@@H](CC(N)=O)C(=O)N[C@H]2C(=O)N[C@H]3C(=O)N[C@H](C(=O)N[C@H](C(=O)O)c4cc(O)cc(O)c4-c4cc3ccc4O)[C@H](O)c3ccc(c(Cl)c3)Oc3cc2cc(c3O[C@@H]2O[C@H](CO)[C@@H](O)[C@H](O)[C@H]2O[C@H]2C[C@](C)(N)[C@H](O)[C@H](C)O2)Oc2ccc(cc2Cl)[C@H]1O [vancomycin, reference compound] | – | – | – | – | – | – | – | – | 97.67 | 113.37 | 79.59 | 63.73 | 9.06 | 1.09 | > 10 | 2.5 (≈ 3.62 µg/mL)
